Source: patent US9050278B2, “Scavenger of in vivo harmful reactive oxygen species and/or free radicals” (priority 2005, dated 2015)
Where two headings read alike, the source gives them in different places.

Key:
[1] = system: PC12 cells; assay: Cell death induced by antimycin A, viable cell count; format: cell-based, Rat
Protocol: (§1) The cells were cultured with an incubator at 37° C. under 5% CO2.
(§2) The cells were cultured at 37° C. in a sealed state. […] The cells were cultured at 37° C.
(§3) After 24 hours, the number of viable cells having a pyramid-shaped cell form was counted under a phase contrast microscope.
(§4) PC12 cells were cultured in a collagen-coated 24-well cell culture dish (manufactured by IWAKI&Co. Ltd.). […] After 0, 1, 2, and 3 days, the number of viable cells having a pyramid-shaped cell form was counted under a phase contrast microscope.
as §4, with “Cell death was induced by antimycin A or menadione in the same way as in Examples 2 and 3. […] First, PC12” for “PC12”, “24 hours,” for “0, 1, 2, and 3 days,”
as §3

[2] = system: PC12 cells; assay: Cell death induced by menadione, viable cell count; format: cell-based, Rat
Protocol: as §1, §2, §3, §4
as §4, with “Cell death was induced by antimycin A or menadione in the same way as in Examples 2 and 3. […] First, PC12” for “PC12”, “24 hours,” for “0, 1, 2, and 3 days,”

[3] = system: cerebral ischemia-reperfusion injury
Protocol: In cerebral ischemia, diverse mechanisms generate reactive oxygen species, and .OH is detected after ischemia-reperfusion. Rats were rendered locally ischemic for 90 minutes by mild cerebral artery occlusion and subsequently reperfused for 30 minutes. […] FK506 (1 mg/kg of body weight) was administered into the blood once immediately before reperfusion. Edaravone (3 mg/kg of body weight) was administered into the blood twice immediately before reperfusion and immediately after reperfusion. After anesthesia, the rats were maintained at 20° C. under usual air. […] After 1 day of mild cerebral artery occlusion, the brain was sliced, and the slices were stained with 2,3,5-triphenyltetrazolium salt (TTC) capable of serving as a substrate in mitochondrial respiration process. After 1 week, the animals were put under anesthesia. Then, the brain was rapidly excised and fixed with 10% formalin. The paraffin-embedded brain was sliced into a thickness of 6 μm, and the slices were stained with hematoxylin-eosin. Moreover, VECSTAIN ABC Kit was used in staining with antibodies. Anti-Iba-I antibodies were purchased from Wako Pure Chemical Industries, Ltd. Image analysis software (Mac Scope ver. 2.55; Mitsuya Shoji) was used in slide analysis. All the animal experiments were conducted according to the guideline of the animal commission of Nippon Medical School.
An infarct volume was estimated by measuring visually white regions in the brain. […] For comparison, two compounds were further tested. […] The other compound was FK506, which is under clinical trial for cerebral infarction in USA. […] The brain infarct volume was calculated as a total sum of all the slices according to the equation: infarct area×thickness.
Rats were rendered locally ischemic for 90 minutes by mild cerebral artery occlusion and subsequently reperfused for 30 minutes. […] The brain was cut by coronal section into 6 slices after 1 day of mild cerebral artery occlusion, and the slices were stained with TTC.
The photographs of FIG. 28 are the staining images of 3 different slices obtained by this method. […] An average value of infarct volumes and standard deviation were determined from the values of 6 animals in each group. *P<0.05, **P<0.01, ***P<0.001.
The brain was fixed after 3 days or 7 days of mild cerebral artery occlusion and embedded in paraffin. The coronal sections of 6 μm in thickness were stained with anti-8-OH-G, anti-HNE, or anti-GFAP antibodies. The left photographs of FIGS. 31 to 33 show the same regions adjacent to occlusion in the temporal cortical regions. The scale bar denotes 100 μm.
In the staining experiment, the brain was fixed after 3 days or 7 days of mild cerebral artery occlusion and embedded in paraffin. The coronal sections were stained with each antibody. The photographs of FIG. 34 show the central regions of occlusion in the temporal cortical regions. The scale bar of FIG. 34 denotes 200 μm. The scale bar in the inserted photographs of FIG. 34 denotes 100 μm. In FIG. 35, an average value of the number of Iba-1-positive cells in a certain field and standard deviation were determined from 6 animals in each group. *P<0.05. […] Microglia accumulation serves as an indicator for a brain disorder.

[4] = system: PC12 cells; conditions: antimycin A 10 μg/ml, 0.6 mM hydrogen, 24 hours
Protocol: (§5) To generate .OH via O2^−., antimycin A was added to cells. […] The cells were cultured at 37° C.
(§6) In .OH detection, HPF (0.4 μM) was added to a cell medium, and the fluorescence image thereof was observed using a confocal laser scanning microscope (FV300 manufactured by Olympus Corp.) at an excitation wavelength of 488 nm and an […] wavelength of 510 nm. MitoTracker Green (1 μM; Molecular Probes) and MitoTracker Red (100 nM; Molecular Probes) were used in the staining of mitochondria. Anti-HNE and anti-8-OH-G antibodies were purchased from Nikken Seil Co., Ltd. Moreover, anti-TUJ-1 and anti-GFAP antibodies were purchased from Babco and Immunon, respectively.
The scale bars in FIGS. 16 and 18 denote 100 μm. Immunostaining intensities with anti-8-OH-G (FIG. 17) and anti-HNE (FIG. 19) antibodies were quantified using NIH Image software. […] Average values and standard deviations were determined from 4 independent experiments. *P<0.05, **P<0.01, ***P<0.001.

[5] = system: ischemia-reperfusion injury in the liver; conditions: untreated 74
From the text: Mice (C57BL/6 line, 5 week old, male) were put under general anesthesia by supplying mixed anesthetic gases (oxygen: 0.3 L/min., nitrous oxide: 0.7 L/min., Sevofrane (Maruishi Pharmaceutical Co., Ltd.): 3%) thereto with a small animal general anesthesia machine Soft Lander (Neuroscience Inc.). After anesthesia introduction, the anesthesia was maintained for a long time by supplying thereto a mixed anesthetic gas containing Sevofrane at a concentration reduced to 1.5% (oxygen: 0.3 L/min., laughing gas: 0.7 L/min., Sevofrane: 1.5%). Surgical skills (reference: Yadav, S. S. et al., Transplantation 65, 1433-1436 (1998)) shown below were used to prepare model animals with local ischemia-reperfusion injury in the liver. The model animals were examined by hematoxylin-eosin staining (H&E staining) for tissue degeneration in the ischemic liver and hepatic parenchymal cell death induced by ischemia-reperfusion injury.
The belly was opened in the middle thereof. Three canals, portal vein, hepatic artery, and bile duct, leading to the left robe of the liver were together blocked (ischemia start) with a micro-clamp (FD562; Aesculap, South San Francisco, Calif., USA). The belly was sutured with a silk thread. After 90 minutes, the belly was opened again by removing the silk thread used for suture, and the micro-clamp was removed (reperfusion start). The belly was sutured again with a silk thread. The left robe of the liver was reperfused for 3 hours under anesthesia. […] After reperfusion for 3 hours, the left robe of the liver (ischemic liver) was excised and cut into fine strip slices. The slices were fixed by dipping in 10% neutral buffered formalin solution (Wako Pure Chemical Industries, Ltd.).
The fixed ischemic liver slices were subjected to dehydration with ethyl alcohol, dehydrating agent removal with xylene, and paraffin infiltration in an automatic embedding apparatus (SAKURA, Tissue-Tek VIPS). The paraffin-embedded ischemic liver was cut into slices of 3 μm to 5 μm in thickness with a sledge microtome. The slices were attached to slide glass. […]

[6] = system: cytochrome c; assay: Reduction of cytochrome c in hydrogen water; format: biochemical; conditions: neutral solution saturated with hydrogen molecules, room temperature
Protocol: (§7) First, 1 l of water was injected into a 5-l pressure-resistant bottle (manufactured by UNICONTROLS. CO., LTD.).
(§8) After reaction at room temperature for 30 minutes, absorbance at 415, 400, and 340 nm, respectively, were measured with a spectrophotometer.

[7] = system: cerebral cortex-derived primary cultured neuronal cells
Protocol: Rat cerebral cortex-derived primary cultured cells were used to induce oxidative stress under more physiological conditions.
Rat cerebral cortex-derived primary cultured neuronal cells were prepared from a 16-day-old fetus. The cerebral cortex was cut after meninges removal and digested with a protease mixed solution (SUMILON). The slices were mechanically dissociated with a pipette. Then, the cells were dispersed in a nerve cell culture medium (SUMILON) and seeded at a cell density of 5×10^4 cells/cm^2 in a plate coated with poly-L-lysine. The medium was replaced every three days by Neurobasal Medium (Gibco) containing B-27 (Gibco). The cells cultured for 11 days were used in the experiment. One day before the creation of an oxygen-glucose-deficient state, the medium was replaced by Neurobasal Medium (Gibco) containing B-27 minus AO (Gibco). […] 90% or more of the cells were neuronal cells.
To terminate the oxygen-glucose-deficient state, the medium was replaced again by the medium used before replacement. Culture was further continued at 37° C. in 95% air/5% carbon dioxide atmosphere.
After 10 minutes of the termination of the oxygen-glucose-deficient state, the amount of .OH was measured based on HPF fluorescence. […] To prepare a control, cells were treated with a DMEM medium containing glucose and oxygen, instead of being exposed to an oxygen-glucose-deficient state. […] An average value and standard deviation was determined from 4 independent experiments. **P<0.01.
After 1 day of oxygen-glucose deficiency, the viable neuronal cells were further detected by staining neuron-specific anti-TUJ-1 antibody. […] Average values and standard deviations shown in FIGS. 23 and 24 were determined from 4 independent experiments. ^#<0.0001 in FIG. 23, *P<0.05 in FIG. 24.

[8] = neutral solution saturated with hydrogen molecules, room temperature
[9] = room temperature, neutral conditions, without catalysts, HPF fluorescence
From the text: RF-5300PC (manufactured by Shimadzu Corp.) was used in fluorescence intensity measurement.
The .OH was monitored with a spectrofluorometer.

[10] = neutral solution saturated with hydrogen molecules, room temperature; remark: listed apart in the source
[11] = Reduction of NAD+ in hydrogen water; format: biochemical; conditions: neutral solution saturated with hydrogen molecules, room temperature
Protocol: as §7, §8

[12] = Elimination of superoxide by hydrogen water; format: biochemical; conditions: neutral solution saturated with hydrogen molecules, room temperature
Protocol: as §7
For superoxide (O2^−.), 25× Reaction Buffer, Xanthine Solution, and NBT Solution contained in […] […] Then, a Xanthine oxidase solution was added thereto to thereby generate O2^−.. NBT-diformazan accumulation was measured over time with a spectrophotometer at 550 nm.
as §8

[13] = Reduction of FAD in hydrogen water; format: biochemical; conditions: neutral solution saturated with hydrogen molecules, room temperature
Protocol: as §7, §8

[14] = Elimination of hydrogen peroxide by hydrogen water; format: biochemical; conditions: neutral solution saturated with hydrogen molecules, room temperature
Protocol: as §7
After reaction at room temperature for 30 minutes, 0.2 M phosphate buffer (pH 7.2) containing an equal amount of 20 μM DCFDA was subsequently added thereto. After reaction for 10 minutes, the amount of H2O2 remaining was measured with a fluorescence analyzer at an excitation wavelength of 485 nm.
as §8

[15] = Elimination of nitrogen monoxide by hydrogen water; format: biochemical; conditions: neutral solution saturated with hydrogen molecules, room temperature
Protocol: First, 1 l of water was injected into a 5-l pressure-resistant bottle (manufactured by UNICONTROLS. CO., LTD.). […] After reaction at room temperature for 30 minutes, 1 μM 5-(and -6)-chloromethyl-2′,7′-dichlorodihydrofluorescein diacetate (DCFDH; manufactured by Molecular Probe, USA) was subsequently added thereto. The amount of NO remaining was measured with a fluorescence analyzer (manufactured by TECAN, Austria) at an excitation wavelength of 485 nm. […] After reaction at room temperature for 30 minutes, absorbance at 415, 400, and 340 nm, respectively, were measured with a spectrophotometer.

[16] = hydrogen pressure of 1 atm and room temperature; cited from earlier work
[17] = system: skeletal muscle
Protocol: It has been known that strenuous exercise and the sudden stop of exercise generate free radicals and damage various tissues including muscles. […] Rats (Wister Rats, 8 week old, male) were run at a speed of 40 m/min. for 20 minutes. […] After 30 minutes, the rats were slaughtered. The skeletal muscle was excised. […] The method was conducted according to Sakai, Y., Iwamura, Y., Hayashi, J., Yamamoto, N., Ohkoshi, N., Nagata, H., Acute exercise causes mitochondrial DNA deletion in rat skeletal muscle., Muscle and Nerve 22: 256-261, 1999.

[18] = system: PC12 cells; conditions: antimycin A 10 μg/ml, 0.6 mM hydrogen, 30 minutes
Protocol: as §5, §6

[19] = 2% hydrogen gas inhalation vs non-inhalation
[20] = brain fixed after 3 days or 7 days of occlusion

With Cc1c(C)c2c(c(C)c1O)CC[C@@](C)(CCC[C@H](C)CCC[C@H](C)CCCC(C)C)O2 [alpha-tocopherol, reference compound] the “number of viable cells / inhibitory effects on cell death” value ([1]; antimycin A 10 μg/mL, 24 hours, vs hydrogen-free medium, alpha-tocopherol 100 μM (Example 5)) was “observed, albeit weaker than those of hydrogen” and the “number of viable cells / inhibitory effects on cell death” value ([2]; menadione 3 μM, 24 hours, vs hydrogen-free medium, alpha-tocopherol 100 μM (Example 5)) was “significant effects on menadione were not observed”.
With [HH] [hydrogen molecules, hydrogen] the “durability of cell death inhibitory effects (time course)” value ([1]; antimycin A 30 μg/mL, 0, 1, 2 and 3 days) was “confirmed even on the 2nd day or later”, the “hydrogen concentration at which cell death could still be inhibited significantly” value ([1]; antimycin A 30 μg/mL, 24 hours, approximately 1/16 of the saturated hydrogen concentration) was 50 µM and the body temperature [3, 19] was “improved”. For the same compound, the body weight [3, 19] was “improved”, the “brain infarct volume (TTC staining)” value ([3]; 2% hydrogen gas inhaled only during ischemia but not during reperfusion, 1 day) was “not reduced” and the “most effective hydrogen concentration for reduction of infarct volume” value ([3]; 1 day after occlusion, inhaled gas 0 to 4% (v/v) hydrogen) was 2%. For the same compound, the “brain infarct volume (TTC staining)” value ([3]; 1 day after occlusion, inhaled hydrogen 0 to 4% (v/v) for 120 minutes in total) was “Hydrogen concentration-dependent reductions in infarct volume were obviously observed”, the “alleviation of an oxidative disorder compared with Edaravone and FK506” value ([3]; Edaravone 6 mg/kg of body weight, FK506 1 mg/kg of body weight) was “more effective for the alleviation of an oxidative disorder than any of the other compounds tested” and the “difference in infarct volume between hydrogen-treated and hydrogen-untreated group (hematoxylin-eosin)” value ([3]; after 1 week of occlusion) was “more significant after 1 week”. The “oxidation marker stainings (anti-8-OH-G, anti-HNE, anti-GFAP positive cells)” value [3, 20] was “significantly reduced”, the “staining with microglia-specific anti-Iba-I antibodies” value [3, 20] was “significantly reduced” and the “accumulation of 4-hydroxy-2-nonenal (HNE)” value [4] was “inhibition of accumulation”. For the same compound, the “oxidized guanine (8-OH-G) level” value [4] was “protected nuclear DNA from oxidation”, the “durability of cell death inhibitory effects (time course)” value ([2]; menadione 10 μM, 0, 1, 2 and 3 days) was “confirmed even on the 2nd day or later” and the “Degenerated region in liver tissues (%)” value ([5]; hydrogen gas flow rate 0.04 L/min., from 10 minutes before reperfusion start through whole reperfusion period (280 minutes in total)) was 26%. For the same compound, the “Degenerated region in liver tissues (%)” value ([5]; hydrogen gas flow rate 0.1 L/min., from 5 minutes before reperfusion start to 5 minutes after reperfusion start (10 minutes in total)) was 20%, the “Degenerated region in liver tissues (%)” value ([5]; hydrogen gas flow rate 0.2 L/min., from 5 minutes before reperfusion start to 5 minutes after reperfusion start (10 minutes in total)) was 10% and the “reduction of oxidized cytochrome c containing trivalent heme iron” value [6] was “does not reduce”. The “increase in the amount of .OH (HPF fluorescence)” value ([7]; 10 minutes after termination of 60 minutes oxygen-glucose-deficient state, 95% hydrogen/5% carbon dioxide vs nitrogen) was “not observed in the presence of hydrogen”, the “number of viable neuronal cells” value ([7]; 1 day after oxygen-glucose deficiency, anti-TUJ-1 staining) was “increased the number of viable neuronal cells” and the “viability of neuronal cells (cell count, modified MTT method)” value ([7]; 1 day after oxygen-glucose-deficient state) was “increased their viabilities”. For the same compound, the “reduction of Cu^2+” value [8] was “does not reduce”, the “hydroxyl radicals (.OH) levels” value [9] was “reduce hydroxyl radicals (.OH) levels” and the “reduction of Fe^3+” value [10] was “does not reduce”. For the same compound, the “reduction of NAD^+” value [11] was “does not reduce”, the “reduction of O2^−.” value [12] was “do not reduce” and the “reduction of FAD” value [13] was “does not reduce”. For the same compound, the “reduction of hydrogen peroxide” value [14] was “do not reduce”, the “reduction of nitrogen monoxide” value [15] was “do not reduce” and the “amount of hydrogen that can be dissolved per L of water” value [16] was “approximately 17.5 mL per L”. For the same compound, the “deletion in mitochondrial DNA (PCR)” value ([17]; rats after exercise that ingested hydrogen (inhalation or intraperitoneal saline containing supersaturated hydrogen)) was “reduced”, the “damage in the muscular tissues (H&E staining)” value ([17]; rats run 40 m/min. for 20 minutes, then air containing 10% hydrogen gas for 30 minutes) was “alleviate damage in the muscular tissues” and the “.OH levels (HPF fluorescence)” value [18] was “reduced .OH levels”.
